Columns and labels:
[1] = Saturation solubility in key solvents for dermal drug delivery; assay type: physicochemical
Description: A liquid's capability to solubilize LAC-34 was screened by adding a known mass of LAC-34 to a known volume/mass of liquid. Saturation solubility was measured by adding an excess of drug substance and allowing the suspension to equilibrate while stirring for 2-3 days. A sample of the suspension was filtered though a 0.2 μm PTFE membrane followed by dilution (if required) and HPLC analysis. For several mixed solvent systems that included water, a known mass of drug substance was dissolved in a known mass of solvent(s). This solution was then titrated with water while stirring until the solution became cloudy.
HPLC analysis was performed with a HP 1050 system (He degasser, quaternary pump, auto-injector, and variable wavelength detector). The column heater was manufactured by Waters. Data collection and analysis was performed using Chemstation® software.
The saturation solubility of LAC-34 was measured in capric/caprylic triglycerides (CCT), dimethylsulfoxide (DMSO), ethanol, isopropanol, isopropyl myristate (IPM), pentane, propylene glycol (PG), and water. […]
All of the solvents, with the exception of water, were able to dissolve large quantities of LAC-34. […] Propylene glycol (PG), which has multiple actions for dermal drug delivery (see Table 1), was also able to solubilize significant quantities of LAC-34. […]

[2] = Solubility in ternary solvent mixture with water as anti-solvent; assay type: physicochemical; details: 150 mg LAC-34 free base; 1 ml polyethylene glycol + 1 ml ethanol + 0.6 ml water
[3] = Physical state of LAC-34 solutions at 4° C.; assay type: physicochemical; details: 20% LAC-34 in benzyl alcohol
[4] = system: Na+ channel (site 2) in the rat cerebral cortex; details: 10 nM [3H]batrachotoxin, 60 min at 22° C., rat cerebral cortex membranes; read-out: IC50-values for inhibition of batrachotoxinin binding
[5] = system: guinea pigs; test: Dermal anesthetic activity after dermal application, pinprick method (algesimeter); assay type: in vivo, guinea pig; details: highest score over time after patch removal, 5.0% solution
Description: The purpose of this study was to determine the degree to which various salt forms of LAC-34 contribute to the local dermal anesthetic effect of the compound, following dermal application to guinea pigs.
Four groups of six male guinea pigs received a dose of 2.0 ml of a 5.0% solution of four test articles (LAC-34 base, LAC-34 mono-HCl, LAC-34-di HCl and LAC-34 mesylate) that had been applied onto a two inch square, 4 layer thick gauze pad on depilated dosal skin of each guinea pig. Similarly, one group of guinea pigs received the vehicle, which consisted of DMSO/water (90 percent/10 percent, v/v) and served as the control group. The gauze was occluded and the guinea pigs were wrapped for 30 min. Animals were assessed for initial pain reaction (anesthetic depth) at 15 minute intervals up to 3 hours and at 24 hours. An algesimeter, set at 10 g, was employed to assess the onset and depth of anesthesia using the pinprick method causing a twitch response or non-response. The “Average Anesthetic Score” was defined as number of probings not producing a dermal twitch response. Thus, a situation where there were no dermal twitch responses to six probings represent a maximal anesthetic effect and is denoted as an Average Anesthetic Score of 6.

[6] = Local vasodilatation at the dermal injection site; assay type: in vivo; details: contrary to lidocaine
[7] = system: animal models of neuropathic pain; test: Animal models of neuropathic pain; assay type: in vivo; details: potentiated by addition of capsaicin

SMILES: c1ccc(N(CCC2CCCCN2)C2Cc3ccccc3C2)cc1 (racemic) [LAC-34, 2-[2-(N-Phenyl-N-2-indanyl)aminoethyl]piperidine]
- Solubility in isopropanol ([1]; 0.25 g LAC-34 solubilized once isopropanol level was 0.225 g): approximately 526 mg/mL
- LAC-34 Solubility (saturation) ([1]; solvent as printed on the line: Propylene glycol (PG)): 5 µg/mL
- Solubility in ternary solvent mixture [2]: 5.5 % (w/w)
- Physical state at 4° C. [3]: still a solution
- IC50 [4]: 270 nM
- Maximal depth of anesthesia (Average Anesthetic Score) [5]: 4.8
- Local vasodilatation at the dermal injection site [6]: not to cause local vasodilatation
- Analgesic activity [7]: exerts analgesic activity
